In brackets after ≈: the same amount, converted by molar mass. Read-outs that look alike come from different tables or passages of the source.
What was measured:
Test in all cases: Agar dilution test on mDixon agar, minimal inhibitory concentration (MIC)
Format in all cases: cell-based
M. furfur = settings: for MIC: Malassezia furfur
Protocol: (§1) The fatty acid esters and their mixtures were tested for growth inhibition against Malassezia. The following reference strains were included:
(§2) Tests were performed on solid media using agar dilution tests. Stock solutions of test substances were prepared in mDixon-Agar (cf. Table 2). Lower test concentrations were obtained by diluting stock solutions with fresh agar.
(§3) Preparation of liquid agar was carried out in temperated water bath. Required amounts of test substances were weighed in 130 ml of Dixon Agar and mixed with fresh Dixon-Agar to reach desired concentrations of test substances. Agar solutions with test substances were then poured into 24 well-plates. The pH value in all assays was maintained at 5.5. Preparation of test substances was done on weight per volume base. All results are expressed in parts per million (1 ppm=0.0001%).
(§4) Briefly, Malassezia strains were cultivated on selective agar for pathogenic fungi (Merck) and overlaid with a thin layer of cold-sterilized olive oil. […] Incubation was carried out at 32° C. over a maximal duration of 14 days with regular inspection and documentation of growth status. Minimal inhibitory concentrations (MICs) were determined as the lowest concentrations of test compound without visible growth. Each experiment was repeated to confirm results.

M. globosa = settings: for MIC: Malassezia globosa
Protocol: as §1, §2, §3, §4

M. pachydermatis = settings: for MIC: Malassezia pachydermatis
Protocol: as §1, §2, §3, §4

M. restricta = settings: for MIC: 336 h
Protocol: as §1, §2, §3, §4

M. sympodialis = settings: for MIC: 336 h
Protocol: as §1, §2, §3, §4

[1] = CBS1878, 336 h, M. furfur CBS 1878, agar dilution, pH 5.5, 32° C., up to 14 days, read-out: Minimal inhibitory concentration (MIC)
[2] = CBS7019, 336 h, M. furfur CBS 7019, agar dilution, pH 5.5, 32° C., up to 14 days, read-out: Minimal inhibitory concentration (MIC)
[3] = 336 h, M. globosa PM1, agar dilution, pH 5.5, 32° C., up to 14 days, read-out: Minimal inhibitory concentration (MIC)
[4] = CBS7966, 336 h, M. globosa CBS 7966, agar dilution, pH 5.5, 32° C., up to 14 days, read-out: Minimal inhibitory concentration (MIC)
[5] = 336 h, M. pachydermatis 1892, agar dilution, pH 5.5, 32° C., up to 14 days, read-out: Minimal inhibitory concentration (MIC)
[6] = CBS1879, 336 h, M. pachydermatis CBS 1879, agar dilution, pH 5.5, 32° C., up to 14 days, read-out: Minimal inhibitory concentration (MIC)
[7] = M. restricta CBS 7877, agar dilution, pH 5.5, 32° C., up to 14 days, read-out: Minimal inhibitory concentration (MIC)
[8] = pH 5.5, M. sympodialis ATCC 42132, pH 5.5, 32° C., up to 14 days, read-out: Minimal inhibitory concentration (MIC)
[9] = pH 5.5, M. sympodialis CBS 7222, pH 5.5, 32° C., up to 14 days, read-out: Minimal inhibitory concentration (MIC)
[10] = pH 5.5, M. sympodialis CBS 7979, pH 5.5, 32° C., up to 14 days, read-out: Minimal inhibitory concentration (MIC)
[11] = pH 5.5, M. sympodialis DSM 6171, pH 5.5, 32° C., up to 14 days, read-out: Minimal inhibitory concentration (MIC)
[12] = CBS7705, 336 h, M. globosa CBS 7705, agar dilution, pH 5.5, 32° C., up to 14 days, read-out: Minimal inhibitory concentration (MIC)
[13] = M. furfur CBS 1878, agar dilution, pH 5.5, 32° C., up to 14 days
[14] = M. furfur CBS 7019, agar dilution, pH 5.5, 32° C., up to 14 days
[15] = M. globosa CBS 7966, agar dilution, pH 5.5, 32° C., up to 14 days
[16] = M. globosa PM1, agar dilution, pH 5.5, 32° C., up to 14 days
[17] = M. pachydermatis 1892, agar dilution, pH 5.5, 32° C., up to 14 days
[18] = M. pachydermatis CBS 1879, agar dilution, pH 5.5, 32° C., up to 14 days
[19] = M. restricta CBS 7877, agar dilution, pH 5.5, 32° C., up to 14 days
[20] = 336 h, pH 5.5, read-out: Minimal inhibitory concentration (MIC)

| Molecule | MIC (M. furfur; [1]) [µg/mL] | MIC (M. furfur; [2]) [µg/mL] | MIC (M. globosa; [3]) [µg/mL] | MIC (M. globosa; [4]) [µg/mL] | MIC (M. pachydermatis; [5]) [µg/mL] | MIC (M. pachydermatis; [6]) [µg/mL] | MIC (M. restricta; [7]) [µg/mL] | MIC (M. sympodialis; [8]) [µg/mL] | MIC (M. sympodialis; [9]) [µg/mL] | MIC (M. sympodialis; [10]) [µg/mL] | MIC (M. sympodialis; [11]) [µg/mL] | MIC (M. globosa; [12]) [µg/mL] | Minimal inhibitory concentration (MIC) (M. furfur; [13]) [ppm] | Minimal inhibitory concentration (MIC) (M. furfur; [14]) [ppm] | Minimal inhibitory concentration (MIC) (M. globosa; [15]) [ppm] | Minimal inhibitory concentration (MIC) (M. globosa; [16]) [ppm] | Minimal inhibitory concentration (MIC) (M. pachydermatis; [17]) [ppm] | Minimal inhibitory concentration (MIC) (M. pachydermatis; [18]) [ppm] | Minimal inhibitory concentration (MIC) (M. restricta; [19]) [ppm] | also measured |
| --- | --- | --- | --- | --- | --- | --- | --- | --- | --- | --- | --- | --- | --- | --- | --- | --- | --- | --- | --- | --- |
| CCCCCCCC(=O)O [Caprylic acid, caprylic acid] | 1000 (≈ 6.93 mM) | 2000 (≈ 13.9 mM) | 500 (≈ 3.47 mM) | 1000 (≈ 6.93 mM) | 200 (≈ 1.39 mM) | 100 (≈ 0.693 mM) | 200 (≈ 1.39 mM) | 330 (≈ 2.29 mM) | 330 (≈ 2.29 mM) | 1000 (≈ 6.93 mM) | 500 (≈ 3.47 mM) | – | – | – | – | – | – | – | – | – |
| CCCCCCCC(=O)OCC [Ethyl caprylate] | > 20000 | 10000 (≈ 58 mM) | 1000 (≈ 5.8 mM) | 1000 (≈ 5.8 mM) | 1000 (≈ 5.8 mM) | < 500 | 4000 (≈ 23.2 mM) | 1000 (≈ 5.8 mM) | 1000 (≈ 5.8 mM) | 1000 (≈ 5.8 mM) | 1000 (≈ 5.8 mM) | – | – | – | – | – | – | – | – | – |
| C=CCCCCCCCCC(=O)OCC [Ethyl undecylenoate] | 20000 (≈ 94.2 mM) | > 20000 | 8000 (≈ 37.7 mM) | 10000 (≈ 47.1 mM) | 500 (≈ 2.35 mM) | 2000 (≈ 9.42 mM) | 1000 (≈ 4.71 mM) | 200 (≈ 0.942 mM) | 200 (≈ 0.942 mM) | 200 (≈ 0.942 mM) | 200 (≈ 0.942 mM) | 4000 (≈ 18.8 mM) | – | – | – | – | – | – | – | – |
| CCCCCCCC(=O)OCC(O)CO (stereo not drawn) [Glyceryl monocaprylate] | 4000 (≈ 18.3 mM) | 4000 (≈ 18.3 mM) | 500 to 1000 (≈ 2.29 to 4.58 mM) | 1000 (≈ 4.58 mM) | 500 (≈ 2.29 mM) | 330 (≈ 1.51 mM) | 330 (≈ 1.51 mM) | 1000 (≈ 4.58 mM) | 1000 (≈ 4.58 mM) | 1000 (≈ 4.58 mM) | 2000 (≈ 9.16 mM) | 1000 (≈ 4.58 mM) | – | – | – | – | – | – | – | – |
| C=CCCCCCCCCC(=O)OCC(O)CO (stereo not drawn) [Glyceryl monoundecylenoate] | 8000 (≈ 31 mM) | 8000 (≈ 31 mM) | 2000 (≈ 7.74 mM) | 2000 (≈ 7.74 mM) | 4000 (≈ 15.5 mM) | 8000 (≈ 31 mM) | 1000 (≈ 3.87 mM) | 500 (≈ 1.94 mM) | 500 (≈ 1.94 mM) | 500 (≈ 1.94 mM) | 200 (≈ 0.774 mM) | 1000 (≈ 3.87 mM) | – | – | – | – | – | – | – | – |
| C=CCCCCCCCCC(=O)OCC(COC(=O)CCCCCCCCC=C)OC(=O)CCCCCCCCC=C [Glyceryl triundecylenoate] | – | – | – | – | – | – | – | – | – | – | – | – | 10000 | >20000 | >20000 | 8000 | 4000 | 4000 | 4000 | Minimal inhibitory concentration (MIC) (M. globosa; M. globosa CBS 7705, agar dilution, pH 5.5, 32° C., up to 14 days): 8000 ppm |
| C=CCCCCCCCCC(=O)O [Undecylenic acid, 10-undecylenic acid] | – | – | – | – | – | – | – | – | – | – | – | – | – | – | – | – | – | – | – | MIC (M. furfur; CBS1878, 336 h, pH 5.5, read-out: Minimal inhibitory concentration (MIC)): 2000 µg/mL (≈ 10.9 mM); MIC (M. furfur; CBS7019, 336 h, pH 5.5, read-out: Minimal inhibitory concentration (MIC)): > 2000 µg/mL; MIC (M. globosa; [20]): 677 µg/mL (≈ 3.67 mM); MIC (M. globosa; CBS7705, 336 h, pH 5.5, read-out: Minimal inhibitory concentration (MIC)): 330 µg/mL (≈ 1.79 mM); MIC (M. globosa; CBS7966, 336 h, pH 5.5, read-out: Minimal inhibitory concentration (MIC)): 2000 µg/mL (≈ 10.9 mM); MIC (M. pachydermatis; [20]): 500 µg/mL (≈ 2.71 mM); MIC (M. pachydermatis; CBS1879, 336 h, pH 5.5, read-out: Minimal inhibitory concentration (MIC)): 1000 µg/mL (≈ 5.43 mM); MIC (M. restricta; pH 5.5, read-out: Minimal inhibitory concentration (MIC)): 500 µg/mL (≈ 2.71 mM); MIC (M. sympodialis; pH 5.5, read-out: Minimal inhibitory concentration (MIC), M. sympodialis ATCC 42132, pH 5.5, 32° C., up to 14 days): 100 µg/mL (≈ 0.543 mM); MIC (M. sympodialis; pH 5.5, read-out: Minimal inhibitory concentration (MIC), M. sympodialis CBS 7222, pH 5.5, 32° C., up to 14 days): 100 µg/mL (≈ 0.543 mM); MIC (M. sympodialis; pH 5.5, read-out: Minimal inhibitory concentration (MIC), M. sympodialis CBS 7979, pH 5.5, 32° C., up to 14 days): 200 µg/mL (≈ 1.09 mM); MIC (M. sympodialis; pH 5.5, read-out: Minimal inhibitory concentration (MIC), M. sympodialis DSM 6171, pH 5.5, 32° C., up to 14 days): 100 µg/mL (≈ 0.543 mM) |
| PEG9-caprylate | – | – | – | – | – | – | – | – | – | – | – | – | 20000 | 10000 | 2000 | 2000 | 4000 | 2000 | 2000 | Minimal inhibitory concentration (MIC) (M. sympodialis; M. sympodialis ATCC 42132, pH 5.5, 32° C., up to 14 days): 10000 ppm; Minimal inhibitory concentration (MIC) (M. sympodialis; M. sympodialis CBS 7222, pH 5.5, 32° C., up to 14 days): 10000 ppm; Minimal inhibitory concentration (MIC) (M. sympodialis; M. sympodialis CBS 7979, pH 5.5, 32° C., up to 14 days): 8000 ppm; Minimal inhibitory concentration (MIC) (M. sympodialis; M. sympodialis DSM 6171, pH 5.5, 32° C., up to 14 days): 8000 ppm |
| PEG-9-undecylenoate | – | – | – | – | – | – | – | – | – | – | – | – | 20000 | >20000 | 10000 | 8000 | 8000 | 8000 | 4000 | – |

Source: US12274775B2, “Fatty acid esters as anti-Malassezia agents” (SYMRISE AG, priority 2019, dated 2025)
